Marks after values point to notes of the source that are not given here.
System: rat model of postoperative pain
Assay: Mechanical allodynia testing in a rat model of postoperative pain (hind paw incision)
Assay type: in vivo
Details: for Mechanical allodynia threshold (PWT (g)): single dose
[1] = Sivelestat sodium 100 mg/kg IP, 0.5 h
[2] = Sivelestat sodium 100 mg/kg IP, 1 h
[3] = Sivelestat sodium 100 mg/kg IP, 2 h
[4] = Sivelestat sodium 150 mg/kg IP, 0.5 h
[5] = Sivelestat sodium 150 mg/kg IP, 1 h
[6] = Sivelestat sodium 150 mg/kg IP, 2 h
[7] = Sivelestat sodium 150 mg/kg IP, 6 h
[8] = Sivelestat sodium 200 mg/kg IP, 0.5 h
[9] = Sivelestat sodium 200 mg/kg IP, 1 h
[10] = Sivelestat sodium 200 mg/kg IP, 2 h
[11] = Sivelestat sodium 300 mg/kg IP, 0.5 h
[12] = Sivelestat sodium 300 mg/kg IP, 1 h
[13] = Sivelestat sodium 300 mg/kg IP, 2 h

For CC(C)(C)C(=O)Oc1ccc(S(=O)(=O)Nc2ccccc2C(=O)NCC(=O)O)cc1 [Sivelestat sodium, sivelestat sodium], the “% MPE (anti-allodynic effect)” value [1] was 25.2* %, the “% MPE (anti-allodynic effect)” value [2] was 42.4*** % and the “% MPE (anti-allodynic effect)” value [3] was 44.1*** %. The “Mechanical allodynia threshold (PWT (g))” value [1] was 5.5 g, the “Mechanical allodynia threshold (PWT (g))” value [2] was 7.8 g and the “Mechanical allodynia threshold (PWT (g))” value [3] was 8.3 g. The “% MPE (anti-allodynic effect)” value [4] was 31.4*** %, the “% MPE (anti-allodynic effect)” value [5] was 51.1*** % and the “% MPE (anti-allodynic effect)” value [6] was 48.4*** %. For the same compound, the “% MPE (anti-allodynic effect)” value [7] was 11.3%, the “Mechanical allodynia threshold (PWT (g))” value [4] was 6.3 g and the “Mechanical allodynia threshold (PWT (g))” value [5] was 8.9 g. For the same compound, the “Mechanical allodynia threshold (PWT (g))” value [6] was 8.8 g, the “Mechanical allodynia threshold (PWT (g))” value [7] was 3.9 g and the “% MPE (anti-allodynic effect)” value [8] was 32.6*** %. The “% MPE (anti-allodynic effect)” value [9] was 55.1*** %, the “% MPE (anti-allodynic effect)” value [10] was 45.3*** % and the “Mechanical allodynia threshold (PWT (g))” value [8] was 6.4 g. For the same compound, the “Mechanical allodynia threshold (PWT (g))” value [9] was 9.4 g, the “Mechanical allodynia threshold (PWT (g))” value [10] was 8.4 g and the “% MPE (anti-allodynic effect)” value [11] was 37.5*** %. For the same compound, the “% MPE (anti-allodynic effect)” value [12] was 49*** %, the “% MPE (anti-allodynic effect)” value [13] was 52.6*** % and the “Mechanical allodynia threshold (PWT (g))” value [11] was 7.0 g. The “Mechanical allodynia threshold (PWT (g))” value [12] was 8.6 g, the “Mechanical allodynia threshold (PWT (g))” value [13] was 9.3 g and the “duration of a high level of analgesic efficacy” value (rat postoperative pain model, conclusion from Embodiment 1) was “more than 6 h”.
